# Patent publication EP3046573B1, “AMYLIN ANALOGUES” (Zealand Pharma A/S, priority 2013, dated 2015)
# Where two headings read alike, the source gives them in different places. Numbered stars: 1 amine (or outer) side, 2 acyl side, 3 side chain; on linkers, the order of the positions; unused ones are H or OH. Bridge positions count the residues as written; N and C are the ends. Square brackets hold non-standard residues; d marks the D form. Peptide text beside a SMILES is read from it. * marks the point of attachment. C20 diacid = O=C(O)CCCCCCCCCCCCCCCCCCC(=O)*; γGlu = O=C(O)[C@H](CCC(=O)[*:2])N[*:1]; Hyp = O=C(O)[C@@H]1C[C@@H](O)CN1; NMeI = CC[C@H](C)[C@H](NC)C(=O)O; Sar = CNCC(=O)O
# Assays:
# [1] = Solubility assessment (turbidity absorbance at 325 nm); type: physicochemical; details: stock 2 mg/ml diluted 1:1, ambient temperature (typically 25°C), n=1
# In short: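 Turbidimetric screen across pH 4.0–7.5 in 100 mM acetate, histidine and phosphate buffers. A 2 mg/ml peptide stock (pH 2.5) was diluted 1:1 into each, then A325 measured at ambient temperature; values ≤ 0.02 AU denoted solubility of 1 mg/ml or more.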
# [2] = target: T1, human amylin receptor 3 (hAMYR3) consisting of hCTR2 co-expressed with human Receptor Activity Modifying Protein 3 (hRAMP3) (Homo sapiens, UniProt O60896+P30988); test: hAMYR3 assay: induction of cAMP (AlphaScreen cAMP Assay kit) in COS7 cells expressing hAMYR3; type: cell-based
# T1 construct: expressed in transfected cells
# T1 sequence (P30988 25-474): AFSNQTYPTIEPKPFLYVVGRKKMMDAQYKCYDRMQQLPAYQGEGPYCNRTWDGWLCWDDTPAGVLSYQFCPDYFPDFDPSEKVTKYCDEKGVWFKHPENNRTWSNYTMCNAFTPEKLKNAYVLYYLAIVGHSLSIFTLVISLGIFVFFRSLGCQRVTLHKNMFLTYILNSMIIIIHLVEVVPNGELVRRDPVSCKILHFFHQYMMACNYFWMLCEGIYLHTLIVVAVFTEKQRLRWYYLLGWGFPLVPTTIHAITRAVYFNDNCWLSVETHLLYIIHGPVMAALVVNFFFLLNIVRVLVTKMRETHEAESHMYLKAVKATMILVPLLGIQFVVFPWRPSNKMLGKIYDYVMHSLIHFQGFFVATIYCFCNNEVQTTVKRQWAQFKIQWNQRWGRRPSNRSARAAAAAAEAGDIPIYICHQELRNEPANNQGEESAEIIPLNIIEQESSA
# T1 sequence (O60896 24-148 partner): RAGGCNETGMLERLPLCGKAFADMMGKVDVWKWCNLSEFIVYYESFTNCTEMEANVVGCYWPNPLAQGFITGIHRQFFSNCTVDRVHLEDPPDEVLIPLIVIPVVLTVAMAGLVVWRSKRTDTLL
# Excerpt: The cell line COS7, originating from African Green Monkey kidney fibroblast cells, was used for establishment of the stable cell lines described below. The COS7 cellular background was used due to it being RAMP naive, and as such it provides the best available system for testing of the monomeric hCTR and different heterodimeric amylin receptor subtypes functionally generated by introduction of the individual RAMPs.
# A cell line expressing the human amylin receptor 3 (hAMYR3) was generated in the COS7 cellular background as stable clones. In brief, hCTR2 (GI:4502547) and hRAMP3 (GI:118572586) were amplified by PCR using primers encoding terminal restriction sites for subcloning. The 5'-end primers additionally encoded a near Kozak consensus sequence to ensure efficient translation. The fidelity of the DNA encoding the receptor was confirmed by DNA sequencing. The PCR products encoding the receptor were subcloned into a proprietary tri-cistronic mammalian expression vector with RAMP3, hCTR2 and neomycin (G418) resistance marker. The mammalian expression vector encoding the receptor was transfected into COS7 cells by a standard liposome transfection method. 48 hours post-transfection, cells were seeded for limited dilution cloning and selected with 1 mg/ml G418 in the culture medium. After 3 weeks, surviving colonies of hAMY3R-expressing cells were picked, propagated and tested in the amylin efficacy assay as described in Example 3 below. The functional generation of the amylin receptor phenotype was verified in the efficacy assay by a left-shifted efficacy response to amylin relative to monomeric calcitonin receptor, and one hAMYR3-expressing clone was chosen for compound profiling.
# In vitro activity of test peptides at the hCTR2 and hAMYR3 receptors was assessed by measuring the induction of cAMP following stimulation of the receptor by pramlintide or peptides of the invention using the AlphaScreen® cAMP Assay kit from Perkin-Elmer.
# Briefly, COS7 cells expressing hCTR2 (see Example 2, above) were seeded at 30-40,000 cells per well in 96-well microtiter plates coated with 0.01 % poly-L-lysine, and grown for 1 day in culture in 100 µl growth medium [DMEM, 10% FCS, Penicillin (100 IU/ml), Streptomycin (100 µg/ml)]. On the day of analysis, growth medium was removed and the cells were washed once with 200 µl Tyrode buffer [Tyrode's Salts (9.6 g/l), 10 mM HEPES, pH 7.4]. Cells were incubated in 100 µl Tyrode buffer containing increasing concentrations of test peptides, 100 µM IBMX and 0.1% casein for 15 min at 37° C. The reaction was stopped by carefully decanting off the compound/buffer medium and replacing it with lysis/detection buffer (80 µl 0.1 % w/v BSA, 5 mM HEPES, 0.3 % v/v Tween-20 in deionized water). After incubation at room temperature for 10 min., the cAMP content of the resulting cell lysate was estimated according to the AlphaScreen® cAMP Assay manufacturer's instructions. EC50 values and relative efficacy values (in %) compared to reference peptide (Pramlintide) were estimated by computer-aided curve fitting using the 4-parameter logistic (4PL) non-linear model.
# The in vitro activity results (expressed as EC50 values) for peptides of the invention and for Pramlintide (reference peptide) are summarized in Table 2, below.
# [3] = target: T2, human calcitonin receptor (hCTR2) (Homo sapiens, UniProt P30988); test: hCTR2 assay: induction of cAMP (AlphaScreen cAMP Assay kit) in COS7 cells expressing hCTR2; type: cell-based; details: cAMP induction in COS7 cells expressing hCTR2; average of a minimum of 3 determinations; read-out: hCTR2 EC50
# T2 construct: expressed in transfected cells
# T2 sequence (P30988 25-474): T1 sequence (P30988 25-474)
# In short: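 cAMP read-out by AlphaScreen after cell lysis; EC50 and % efficacy vs pramlintide from 4-parameter logistic fitting. Agonist stimulation: hCTR2-COS7 stable cells, 15 min, 37° C, 100 µM IBMX, 0.1% casein, Tyrode/HEPES pH 7.4.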
EC50 [3],"EC50 ([2]; cAMP induction in COS7 cells expressing hAMYR3, average of a minimum of 3 determinations, read-out: hAMY R3 EC50)",SMILES,"Solubility, Acetate buffer pH 4 ([1]; 100 mM acetate buffer pH 4.0)","Solubility, Acetate buffer pH 5 ([1]; 100 mM acetate buffer pH 5.0)","Solubility, Histidine buffer pH 6 ([1]; 100 mM histidine buffer pH 6.0)","Solubility, Histidine buffer pH 7 ([1]; 100 mM histidine buffer pH 7.0)","Solubility, Phosphate buffer pH 6 ([1]; 100 mM phosphate buffer pH 6.0)","Solubility, Phosphate buffer pH 7 ([1]; 100 mM phosphate buffer pH 7.0)","Solubility, Phosphate buffer pH 7.5 ([1]; 100 mM phosphate buffer pH7.5)",EC50 [2]
–,–,"CC[C@H](C)[C@@H](C(=O)N[C@@H](CC(C)C)C(=O)N[C@@H](CO)C(=O)N[C@@H](CO)C(=O)N[C@H](C(=O)N[C@@H](CC(N)=O)C(=O)N[C@H](C(=O)NCC(=O)N[C@@H](CO)C(=O)N[C@@H](CC(N)=O)C(=O)N[C@H](C(=O)N1CCC[C@H]1C(N)=O)[C@@H](C)O)C(C)C)[C@@H](C)O)N(C)C(=O)[C@H](C)NC(=O)CN(C)C(=O)[C@H](Cc1ccccc1)NC(=O)[C@H](CC(N)=O)NC(=O)[C@H](CC(N)=O)NC(=O)[C@H](CO)NC(=O)[C@H](CO)NC(=O)[C@H](CCCNC(=N)N)NC(=O)[C@H](Cc1c[nH]cn1)NC(=O)[C@H](CC(C)C)NC(=O)[C@H](Cc1ccccc1)NC(=O)[C@H](CCC(=O)O)NC(=O)[C@H](C)NC(=O)[C@H](CC(C)C)NC(=O)[C@H](CCCNC(=N)N)NC(=O)[C@H](CCC(N)=O)NC(=O)[C@@H](NC(=O)[C@H](C)NC(=O)[C@@H]1CSSC[C@H](NC(=O)[C@H](CCCNC(=N)N)NC(=O)[C@H](CCCNC(=N)N)NC(=O)CC[C@H](NC(=O)CCCCCCCCCCCCCCCCCCC(=O)O)C(=O)O)C(=O)N[C@@H](CC(N)=O)C(=O)N[C@@H]([C@@H](C)O)C(=O)N[C@@H](C)C(=O)N[C@@H]([C@@H](C)O)C(=O)N1)[C@@H](C)O [Compound 83, [19CD]-isoGlu-RRC()NTATC()ATQRLAEFLHRSSNNF-Gly(Me)-A-Ile(Me)-LSSTNVGSNTP-NH2] ({C20 diacid-γGlu}-RRCNTATCATQRLAEFLHRSSNNF[Sar]A[NMeI]LSSTNVGSNTP-NH2; disulfide 3-8)",SS (SS indicates solubility ≥ 1mg/ml),SS (SS indicates solubility ≥ 1mg/ml),SS (SS indicates solubility ≥ 1mg/ml),SS (SS indicates solubility ≥ 1mg/ml),SS (SS indicates solubility ≥ 1mg/ml),SS (SS indicates solubility ≥ 1mg/ml),SS (SS indicates solubility ≥ 1mg/ml),0.095 nM
0.12 nM,0.14 nM,"CC[C@H](C)[C@@H](C(=O)N[C@@H](CC(C)C)C(=O)N[C@@H](CO)C(=O)N[C@@H](CO)C(=O)N[C@H](C(=O)N[C@@H](CC(N)=O)C(=O)N[C@H](C(=O)NCC(=O)N[C@@H](CO)C(=O)N[C@@H](CC(N)=O)C(=O)N[C@H](C(=O)N1C[C@H](O)C[C@H]1C(N)=O)[C@@H](C)O)C(C)C)[C@@H](C)O)N(C)C(=O)CN(C)C(=O)[C@H](Cc1ccccc1)NC(=O)[C@H](CC(N)=O)NC(=O)[C@H](CC(N)=O)NC(=O)[C@H](CO)NC(=O)[C@H](CO)NC(=O)[C@H](CCCNC(=N)N)NC(=O)[C@H](Cc1c[nH]cn1)NC(=O)[C@H](CC(C)C)NC(=O)[C@H](Cc1ccccc1)NC(=O)[C@H](CCC(=O)O)NC(=O)[C@H](C)NC(=O)[C@H](CC(C)C)NC(=O)[C@H](CCCNC(=N)N)NC(=O)[C@H](CCC(N)=O)NC(=O)[C@@H](NC(=O)[C@H](C)NC(=O)[C@@H]1CSSC[C@H](NC(=O)[C@H](CCCNC(=N)N)NC(=O)CC[C@H](NC(=O)CCCCCCCCCCCCCCCCCCC(=O)O)C(=O)O)C(=O)N[C@@H](CC(N)=O)C(=O)N[C@@H]([C@@H](C)O)C(=O)N[C@@H](C)C(=O)N[C@@H]([C@@H](C)O)C(=O)N1)[C@@H](C)O [Compound 106, [19CD]-isoGlu-RC()NTATC()ATQRLAEFLHRSSNNF-Gly(Me)-Ile(Me)-LSSTNVGSNT-Hyp-NH2] ({C20 diacid-γGlu}-RCNTATCATQRLAEFLHRSSNNF[Sar][NMeI]LSSTNVGSNT[Hyp]-NH2; disulfide 2-7)",–,–,–,–,–,–,–,–
